Reference: patent publication EP2803363A1, “The antigen CYBA-72Y/B15 and uses thereof” (Universitätsmedizin der Johannes Gutenberg-Universität Mainz, priority 2013, dated 2014)
Ends that are not written are not given here.

T1: CYBA-72Y (cytochrome b-245 alpha-polypeptide, p22phox; SNP rs4673, tyrosine at position 72) peptide on … (human)
T1 peptide: GQKYMTAVV

T2: CYBA-72Y peptide on HLA-B*15:01 (human)
T2 peptide: WGQKYMTAVV


What was measured:
miniMLLC 2E8 [1] = assay: 20h-IFN-gamma ELISpot assay: recognition of synthetic CYBA peptides loaded on HLA-B*15:01-transfected 293T cells; type: cell-based; conditions: for peptide recognition by T lymphocytes against CYBA-72Y/B15: summary statement for all T lymphocytes (miniMLLCs), assay not given; for recognition by T cells using an IFN-gamma-ELISpot assay: 293T cells transfected with HLA-B*15:01, loaded with peptide at different concentrations, 2E8 effector cells, Figure 3A
Protocol: The present invention will now be further described in the following examples with reference to the accompanying figures and sequences, nevertheless, without being limited thereto. For the purposes of the present invention, all references as cited herein are incorporated by reference in their entireties. The Figures and Sequences show: • Figure 1: HLA restriction of miniMLLC 2E8. A) MZ529-EBV-B-cells (5x10^4 cells/well) were co-incubated in the presence of HLA-specific antibodies at concentrations mediating complete blocking of control-T lymphocytes with corresponding HLA restriction, with the miniMLLC 2E8 (1x10^4 cells/TU) in duplicate reactions in a 20h-IFN-gamma ELISpot assay. B) COS-7-cells (2x10^4 cells/well) were transfected with the HLA alleles of patient MZ529-AML and Buffy Coat donor 730 and tested in duplicate reactions for recognition by 2E8 (2x10^4 cells/well) in a 20h-IFN-gamma ELISpot assay. • Figure 2: Fragment analysis of the cDNA clone #428.67.4 for the identification of the peptide-coding region. 3'-fragments with a length difference of one codon (i.e. one amino acid) were generated from the cDNA clone #428.67.4 encoding the full-length CYBA-72Y, and were tested after co-transfection with HLA-B*15:01 into 293T cells (2x10^4 cells/well) in a 20h-IFN-gamma ELISpot assay for recognition by 2E8 (1.5x10^4 cells/well). MZ529-EBV-B cells (5x10^4 cells/well) served as positive control target. • Figure 3: Peptide recognition by the miniMLLC 2E8. (A) For a 20h-IFN-gamma ELISpot assay, 293T cells (2x10^4 cells/well) were transfected with HLA-B*15:01, were loaded with the indicated synthetic CYBA peptides at different concentrations, and were tested in duplicate reactions for recognition by 2E8 (2x10^4 cells/well). (B) For a […]-^51Cr-release assay, HLA-B*15:01-expressing L721.221-cells (2x10^4 cells/well) were loaded with the indicated synthetic CYBA peptides at different concentrations, and co-incubated in duplicate experiments with 2E8 (2x10^4 cells/well). • Figure 4: Recognition of non-malignant hematopoietic cells from HLA-B*15:01-positive BC donors by the CYBA-72Y/B15-specific miniMLLC 2E8. (A) From PBMCs of HLA-B*15:01-positive BC donors, who -with the exception of BC848 - carried at least one CYBA-242T allele (coding for CYBA-72Y), monocytes were purified using plastic adherence and differentiated to mature dendritic cells (mDCs) using cytokines. In duplicates 5x10^4 (BC087, BC848, BC967) or 3x10^4 (BC241, BC048) cells per well were tested for recognition by 2E8 (1.5x10^4 cells/well) in 20h-IFN-gamma ELISpot assays. […]

miniMLLC 2E8 [2] = assay: 48h-51Cr-release assay: synthetic CYBA peptides loaded on HLA-B*15:01-expressing L721.221-cells; type: cell-based; conditions: HLA-B*15:01-expressing L721.221-cells loaded with peptide at different concentrations; 2E8 effector cells; Figure 3B
Protocol: The present invention will now be further described in the following examples with reference to the accompanying figures and sequences, nevertheless, without being limited thereto. For the purposes of the present invention, all references as cited herein are incorporated by reference in their entireties. The Figures and Sequences show: • Figure 1: HLA restriction of miniMLLC 2E8. A) MZ529-EBV-B-cells (5x10^4 cells/well) were co-incubated in the presence of HLA-specific antibodies at concentrations mediating complete blocking of control-T lymphocytes with corresponding HLA restriction, with the miniMLLC 2E8 (1x10^4 cells/TU) in duplicate reactions in a 20h-IFN-gamma ELISpot assay. B) COS-7-cells (2x10^4 cells/well) were transfected with the HLA alleles of patient MZ529-AML and Buffy Coat donor 730 and tested in duplicate reactions for recognition by 2E8 (2x10^4 cells/well) in a 20h-IFN-gamma ELISpot assay. • Figure 2: Fragment analysis of the cDNA clone #428.67.4 for the identification of the peptide-coding region. 3'-fragments with a length difference of one codon (i.e. one amino acid) were generated from the cDNA clone #428.67.4 encoding the full-length CYBA-72Y, and were tested after co-transfection with HLA-B*15:01 into 293T cells (2x10^4 cells/well) in a 20h-IFN-gamma ELISpot assay for recognition by 2E8 (1.5x10^4 cells/well). […]

[3] = target: T1, CYBA-72Y (cytochrome b-245 …); assay: cytokine release
[4] = target: T2, CYBA-72Y peptide on HLA-B*15:01; assay: cytokine release

binding result [3] | binding result [4] | Molecule | peptide recognition by T lymphocytes against CYBA-72Y/B15 (miniMLLC 2E8 [1]) | recognition by T cells using an IFN-gamma-ELISpot assay (miniMLLC 2E8 [1]) | recognition by T cells by means of a 51Cr-(chromium) release test (miniMLLC 2E8 [2])
 |  | GQKHMTAVV [homologous peptide from CYBA-72H, reference compound] | did not lead to any reactivity |  | 
 |  | GQKYMTAVV [GQKYMTAVV] | recognized by all T lymphocytes at the lowest concentration | recognized at lower concentrations | recognized at lower concentrations
 |  | WGQKYMTAVV [WGQKYMTAVV] |  | recognized | recognized
recognises | recognises | T-cell receptor cloned from miniMLLC 2D10 (TCR) alpha TRAV10*01 TRAJ42*01 CDR3: CVVSRIYGGSQGNLIF beta TRBV20-1*02 TRBJ2-3*01 CDR3: CSARGFSGVTDTQYF |  |  | 
